In patent US20260132132A1, “3A,4,5,6-TETRAHYDRO-1 H-PYRAZOLO[3,4-C]PYRIDIN-7(7AH)-ONE DERIVATIVES AS FACTOR XIIA INHIBITORS” (KALVISTA PHARMACEUTICALS LIMITED, priority 2022, published 2026):
pIC50: −log10 of the molar value.

What was measured:
FXa = FXa (Homo sapiens, UniProt P00742); assay: Related protease inhibition: FXa, fluorogenic substrate; format: biochemical; settings: fluorogenic substrate at Km, 25° C.; H1-H3 = % activity at 40 μM
Protocol: Human serine protease enzyme Plasma Kallikrein, KLK1, FXa, Plasmin, Thrombin and Trypsin were assayed for enzymatic activity using an appropriate fluorogenic substrate at Km concentration, FXIa at fixed substrate concentration of 100 μM and various concentrations of the test compound.

[1] = molecular target: T1, Human Factor XIIa (hFXIIa) (Homo sapiens, UniProt P00748); assay: Determination of Human Factor XIIa (hFXIIa) inhibition, fluorogenic substrate IC50 assay; format: biochemical; settings: fluorogenic substrate H-DPro-Phe-Arg-AFC at Km, 25° C., read-out: Human FXIIa IC50
T1 construct: purchased Enzyme Research Laboratories
T1 sequence (P00748 373-615 limits assumed): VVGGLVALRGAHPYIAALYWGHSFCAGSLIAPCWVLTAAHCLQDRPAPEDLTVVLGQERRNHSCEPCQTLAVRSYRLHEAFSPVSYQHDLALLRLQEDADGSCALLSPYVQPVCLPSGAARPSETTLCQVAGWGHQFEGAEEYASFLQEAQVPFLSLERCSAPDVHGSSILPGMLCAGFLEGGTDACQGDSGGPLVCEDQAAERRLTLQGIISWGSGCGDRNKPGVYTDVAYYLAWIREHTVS
T1 sequence (P00748 20-372 partner limits assumed): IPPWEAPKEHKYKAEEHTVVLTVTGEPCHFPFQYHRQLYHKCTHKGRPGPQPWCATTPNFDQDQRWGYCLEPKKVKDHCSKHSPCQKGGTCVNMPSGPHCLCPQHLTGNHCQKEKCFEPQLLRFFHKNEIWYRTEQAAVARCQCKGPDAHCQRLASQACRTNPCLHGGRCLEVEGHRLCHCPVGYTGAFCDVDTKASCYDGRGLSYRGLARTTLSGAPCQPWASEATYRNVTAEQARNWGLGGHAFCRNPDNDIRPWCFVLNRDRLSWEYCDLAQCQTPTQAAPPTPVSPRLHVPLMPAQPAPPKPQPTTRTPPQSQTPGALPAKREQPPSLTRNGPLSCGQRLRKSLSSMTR
Protocol: Determination of Human Factor XIIa (hFXIIa) inhibition
The Km for the cleavage of the substrate by hFXIIa was determined by standard transformation of the Michaelis-Menten equation, with subsequent inhibition assays performed at substrate Km concentration.

Chain of FXa (P00742 235-488 limits assumed): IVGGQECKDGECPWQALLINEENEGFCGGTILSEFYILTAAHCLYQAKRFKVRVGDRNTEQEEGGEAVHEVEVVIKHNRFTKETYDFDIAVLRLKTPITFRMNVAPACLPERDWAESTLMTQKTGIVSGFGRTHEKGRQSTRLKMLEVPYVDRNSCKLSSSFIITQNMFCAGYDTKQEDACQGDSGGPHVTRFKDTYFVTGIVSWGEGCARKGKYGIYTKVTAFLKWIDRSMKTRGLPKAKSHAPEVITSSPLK
Chain of FXa (P00742 41-179 partner limits assumed): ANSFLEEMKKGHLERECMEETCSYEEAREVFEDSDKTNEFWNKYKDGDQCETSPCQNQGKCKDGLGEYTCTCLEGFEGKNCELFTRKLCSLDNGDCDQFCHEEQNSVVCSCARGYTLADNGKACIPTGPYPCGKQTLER

Row | pIC50 (FXa) | pIC50 [1] | Structure (SMILES)
1 | < 4.40 | 6.52 to 7.00 | COc1ccncc1CNC(=O)c1nn(-c2cccc(Cl)c2)c2c1CCN(c1ccc3c(c1)C(=O)N(C)CC3)C2=O [Example 1271, 1-(3-chlorophenyl)-N-((4-methoxypyridin-3-yl)methyl)-6-(2-methyl-1-oxo-1,2,3,4-tetrahydroisoquinolin-7-yl)-7-oxo-4,5,6,7-tetrahydro-1H-pyrazolo[3,4-c]pyridine-3-carboxamide]
2 | 4.40 to 5.00 | 7.00 to 8.00 | Cc1cc(CNC(=O)c2nn(-c3cccc(Cl)c3)c3c2CCN(c2ccc4c(c2)C(=O)N(CCCO)CC4)C3=O)nn1C [Example 1275, 1-(3-chlorophenyl)-N-((1,5-dimethyl-1H-pyrazol-3-yl)methyl)-6-(2-(3-hydroxypropyl)-1-oxo-1,2,3,4-tetrahydroisoquinolin-7-yl)-7-oxo-4,5,6,7-tetrahydro-1H-pyrazolo[3,4-c]pyridine-3-carboxamide]
3 | < 4.40 | 6.00 to 6.52 | Cc1cnnc(CNC(=O)c2nn(-c3cccc(Cl)c3)c3c2CCN(c2ccc4c(c2)C(=O)N(C)CC4)C3=O)c1 [Example 1282, 1-(3-chlorophenyl)-6-(2-methyl-1-oxo-1,2,3,4-tetrahydroisoquinolin-7-yl)-N-((5-methylpyridazin-3-yl)methyl)-7-oxo-4,5,6,7-tetrahydro-1H-pyrazolo[3,4-c]pyridine-3-carboxamide]
4 | < 4.40 | 5.52 to 6.00 | O=C(NCC1CC1)c1nn(-c2cccc(Cl)c2)c2c1CCN(c1cccc(N3CCCCC3=O)c1)C2=O [Example 1285, 1-(3-chlorophenyl)-N-(cyclopropylmethyl)-7-oxo-6-(3-(2-oxopiperidin-1-yl)phenyl)-4,5,6,7-tetrahydro-1H-pyrazolo[3,4-c]pyridine-3-carboxamide]
5 | 4.40 to 5.00 | 6.00 to 6.52 | Cc1ccncc1CNC(=O)c1nn(-c2cccc(Cl)c2)c2c1CCN(c1cccc(N3CCCCC3=O)c1)C2=O [Example 1287, 1-(3-chlorophenyl)-N-((4-methylpyridin-3-yl)methyl)-7-oxo-6-(3-(2-oxopiperidin-1-yl)phenyl)-4,5,6,7-tetrahydro-1H-pyrazolo[3,4-c]pyridine-3-carboxamide]
6 | 4.40 to 5.00 | 7.00 to 8.00 | Cc1ccncc1CNC(=O)c1nn(-c2cccc(Cl)c2)c2c1CCN(c1ccc3c(c1)C(=O)N(CCO)CCO3)C2=O [Example 1299, 1-(3-chlorophenyl)-6-(4-(2-hydroxyethyl)-5-oxo-2,3,4,5-tetrahydrobenzo[f][1,4]oxazepin-7-yl)-N-((4-methylpyridin-3-yl)methyl)-7-oxo-4,5,6,7-tetrahydro-1H-pyrazolo[3,4-c]pyridine-3-carboxamide]
7 | < 4.40 | 6.00 to 6.52 | CC(=O)N1CCc2ccc(N3CCc4c(C(=O)NCc5cc(C)n(C)n5)nn(-c5cccc(Cl)c5)c4C3=O)cc21 [Example 1304, 6-(1-acetylindolin-6-yl)-1-(3-chlorophenyl)-N-((1,5-dimethyl-1H-pyrazol-3-yl)methyl)-7-oxo-4,5,6,7-tetrahydro-1H-pyrazolo[3,4-c]pyridine-3-carboxamide]
8 | 5.00 to 5.52 | 7.00 to 8.00 | Cc1cc(CNC(=O)c2nn(-c3cccc(Cl)c3)c3c2CCN(c2ccc4c(c2)C(=O)N(CCO)CCC4)C3=O)nn1C [Example 1305, 1-(3-chlorophenyl)-N-((1,5-dimethyl-1H-pyrazol-3-yl)methyl)-6-(2-(2-hydroxyethyl)-1-oxo-2,3,4,5-tetrahydro-1H-benzo[c]azepin-8-yl)-7-oxo-4,5,6,7-tetrahydro-1H-pyrazolo[3,4-c]pyridine-3-carboxamide]
9 | 4.40 to 5.00 | 7.00 to 8.00 | Cc1ccncc1CNC(=O)c1nn(-c2cccc(Cl)c2)c2c1CCN(c1ccc3c(c1)C(=O)N(CCO)CCC3)C2=O [Example 1306, 1-(3-chlorophenyl)-6-(2-(2-hydroxyethyl)-1-oxo-2,3,4,5-tetrahydro-1H-benzo[c]azepin-8-yl)-N-((4-methylpyridin-3-yl)methyl)-7-oxo-4,5,6,7-tetrahydro-1H-pyrazolo[3,4-c]pyridine-3-carboxamide]
10 | < 4.40 | 6.52 to 7.00 | CN1CCc2ccc(N3CCc4c(C(=O)N[C@H](CO)c5ccccc5)nn(-c5cccc(Cl)c5)c4C3=O)cc2C1=O [Example 1307, (S)-1-(3-chlorophenyl)-N-(2-hydroxy-1-phenylethyl)-6-(2-methyl-1-oxo-1,2,3,4-tetrahydroisoquinolin-7-yl)-7-oxo-4,5,6,7-tetrahydro-1H-pyrazolo[3,4-c]pyridine-3-carboxamide]
11 | < 4.40 | 6.00 to 6.52 | Cc1cccnc1CNC(=O)c1nn(-c2cccc(Cl)c2)c2c1CCN(c1ccc3c(c1)C(=O)N(C)CC3)C2=O [Example 1308, 1-(3-chlorophenyl)-6-(2-methyl-1-oxo-1,2,3,4-tetrahydroisoquinolin-7-yl)-N-((3-methylpyridin-2-yl)methyl)-7-oxo-4,5,6,7-tetrahydro-1H-pyrazolo[3,4-c]pyridine-3-carboxamide]
12 | < 4.40 | 6.52 to 7.00 | Cc1ncccc1CNC(=O)c1nn(-c2cccc(Cl)c2)c2c1CCN(c1ccc3c(c1)C(=O)N(C)CC3)C2=O [Example 1309, 1-(3-chlorophenyl)-6-(2-methyl-1-oxo-1,2,3,4-tetrahydroisoquinolin-7-yl)-N-((2-methylpyridin-3-yl)methyl)-7-oxo-4,5,6,7-tetrahydro-1H-pyrazolo[3,4-c]pyridine-3-carboxamide]
13 | 4.40 to 5.00 | 6.00 to 6.52 | Cc1ccnnc1CNC(=O)c1nn(-c2cccc(Cl)c2)c2c1CCN(c1ccc3c(c1)C(=O)N(C)CC3)C2=O [Example 1310, 1-(3-chlorophenyl)-6-(2-methyl-1-oxo-1,2,3,4-tetrahydroisoquinolin-7-yl)-N-((4-methylpyridazin-3-yl)methyl)-7-oxo-4,5,6,7-tetrahydro-1H-pyrazolo[3,4-c]pyridine-3-carboxamide]
14 | 4.40 to 5.00 | 6.52 to 7.00 | CC(=O)N1CCCc2ccc(N3CCc4c(C(=O)NCc5cnccc5C)nn(-c5cccc(Cl)c5)c4C3=O)cc21 [Example 1314, 6-(1-acetyl-1,2,3,4-tetrahydroquinolin-7-yl)-1-(3-chlorophenyl)-N-((4-methylpyridin-3-yl)methyl)-7-oxo-4,5,6,7-tetrahydro-1H-pyrazolo[3,4-c]pyridine-3-carboxamide]
15 | 5.00 to 5.52 | 7.00 to 8.00 | CCN1CCOc2ccc(N3CCc4c(C(=O)NCc5cc(C)n(C)n5)nn(-c5cccc(Cl)c5)c4C3=O)cc2C1=O [Example 1317, 1-(3-chlorophenyl)-N-((1,5-dimethyl-1H-pyrazol-3-yl)methyl)-6-(4-ethyl-5-oxo-2,3,4,5-tetrahydrobenzo[f][1,4]oxazepin-7-yl)-7-oxo-4,5,6,7-tetrahydro-1H-pyrazolo[3,4-c]pyridine-3-carboxamide]
16 | 5.00 to 5.52 | 7.00 to 8.00 | CCN1CCOc2ccc(N3CCc4c(C(=O)NCc5cnccc5C)nn(-c5cccc(Cl)c5)c4C3=O)cc2C1=O [Example 1318, 1-(3-chlorophenyl)-6-(4-ethyl-5-oxo-2,3,4,5-tetrahydrobenzo[f][1,4]oxazepin-7-yl)-N-((4-methylpyridin-3-yl)methyl)-7-oxo-4,5,6,7-tetrahydro-1H-pyrazolo[3,4-c]pyridine-3-carboxamide]
17 | 5.52 to 6.00 | 7.00 to 8.00 | Cc1cc(CNC(=O)c2nn(-c3cccc(Cl)c3)c3c2CCN(c2ccc4c(c2)C(=O)N(C)CCO4)C3=O)nn1C [Example 1319, 1-(3-chlorophenyl)-N-((1,5-dimethyl-1H-pyrazol-3-yl)methyl)-6-(4-methyl-5-oxo-2,3,4,5-tetrahydrobenzo[f][1,4]oxazepin-7-yl)-7-oxo-4,5,6,7-tetrahydro-1H-pyrazolo[3,4-c]pyridine-3-carboxamide]
18 | < 4.40 | 6.52 to 7.00 | Cc1cc(CNC(=O)c2nn(-c3cccc(Cl)c3)c3c2CCN(c2ccc4c(c2)C(=O)N(C(C)C)CCO4)C3=O)nn1C [Example 1320, 1-(3-chlorophenyl)-N-((1,5-dimethyl-1H-pyrazol-3-yl)methyl)-6-(4-isopropyl-5-oxo-2,3,4,5-tetrahydrobenzo[f][1,4]oxazepin-7-yl)-7-oxo-4,5,6,7-tetrahydro-1H-pyrazolo[3,4-c]pyridine-3-carboxamide]
19 | 5.52 to 6.00 | 7.00 to 8.00 | Cc1cc(CNC(=O)c2nn(-c3cccc(Cl)c3)c3c2CCN(c2ccc4c(c2)C(=O)N(CC(N)=O)CC4)C3=O)n[nH]1 [Example 1321, 6-(2-(2-amino-2-oxoethyl)-1-oxo-1,2,3,4-tetrahydroisoquinolin-7-yl)-1-(3-chlorophenyl)-N-((5-methyl-1H-pyrazol-3-yl)methyl)-7-oxo-4,5,6,7-tetrahydro-1H-pyrazolo[3,4-c]pyridine-3-carboxamide]
